Experimental findings from patent US11964954B1 (KING FAISAL UNIVERSITY, priority 2023, dated 2024) are described below.

Molecules are shown by their SMILES. Bounds are passed on as bounds.

In series [1] the test system is human prostate cancer cells (PC3). The series is described as follows: Cytotoxicity by SRB assay, PC3 cells. In kind it is cell-based. The conditions noted are these: for IC50: mean±SD. On the procedure: (§1) The human prostate cancer cells (PC3) and human osteosarcoma cells (MG-63) were obtained from Nawah Scientific Inc. (Mokatam, Cairo, Egypt) and cultured in DMEM (Dulbecco's modified eagle's medium), Gibco, USA, supplemented with fetal bovine serum (FBS) at a concentration of 10% and 100 U/mL of penicillin and streptomycin (PS). The cells were incubated at 37° C. in a humidified environment that contained 5% CO2.
(§2) Cells were seeded in 96-well plates as aliquots of 100 μL cell suspension and incubated in a complete media for 24 h. Afterward, cells were treated with N′-[(2-chlorobenzoyl)oxy]-1,3-benzothiazole-2-carboximidamide at diverse concentrations ranging from 0.01 μM to 100 μM for 72 h. Then, cells were fixed at 4° C. for one hour with 150 μL of 10% trichloroacetic acid (TCA). After washing the cells five times with distilled water, 70 μL of sulforhodamine (SRB) solution (0.4% w/v) was added and incubated for 10 min at room temperature in a dark place. Cells were washed with 1% acetic acid three times and allowed to air-dry. Then, 150 μL of Tris pH 10.5 (10 mM) was added, and the absorbance was measured at 540 nm using a BMG LABTECH®-FLUOstar Omega microplate reader (Ortenberg, Germany). Half maximal inhibitory concentrations (IC50) values were calculated for each experiment using GraphPad Prism 6 software. IC50 values were reported as mean±SD.
(§3) The inhibition was calculated using the following equation: Inhibition %=100-Average Viability

In series [2] the test system is human osteosarcoma cells (MG-63). The series is described as follows: Cytotoxicity by SRB assay, MG-63 cells. In kind it is cell-based. Conditions: for IC50: mean±SD. On the procedure: as §1, §2, §3
On the technique in general: In SRB staining, fixed cells bind dye roughly in proportion to their protein.

The test system of series [3] is Bacillus cereus, Staphylococcus aureus, Pseudomonas aeruginosa, Escherichia coli, Aspergillus flavus, Chrysosporium keratinophilum. The series is described as follows: Agar plate disc-diffusion antimicrobial screening. Type of series: cell-based. Conditions: 10 μL of 10 mg/mL in DMSO per disc, result in words only. As for the experimental part: The agar plate disc-diffusion method was applied. Sterilized filter papers (6 mm in diameter) were wetted with 10 μL of a solution of each compound to be tested, containing 10 mg/mL in DMSO, and the discs were allowed to air dry. The discs were then placed onto the surface of agar plates (nutrient agar for bacteria and Sabouraud's dextrose agar for fungi) and seeded with the test organism. Each plate contained 15 mL of the agar medium, previously seeded with 0.2 mL of the broth culture of each organism pre-grown for 18 h. The plates were incubated at 37° C. for 48 h, and 72 h for fungi. The inhibition zones were measured in mm. Discs impregnated with DMSO were used as a control, and its inhibition zone was subtracted from the tested compound actual inhibition zone.
In particular, the present N′-[(2-chlorobenzoyl)oxy]-1,3-benzothiazole-2-carboximidamide was screened against gram positive bacteria, namely Bacillus cereus and Staphylococcus aureus, and gram-negative bacterial strains, namely Pseudomonas aeruginosa and Escherichia coli, while the antifungal activity was screened against Aspergillus flavus and Chrysosporium keratinophilum.

By IC50 is commonly meant the concentration needed to halve the response being measured. Lower therefore signals inhibition by little substance. As to `COc1cccc2c1C(=O)c1c(O)c3c(c(O)c1C2=O)C[C@@](O)(C(=O)CO)C[C@@H]3O[C@H]1C[C@H](N)[C@H](O)[C@H](C)O1` [DOX, Doxorubicin, reference compound], the IC50 in series [1] (Homo sapiens, PC-3, 72 h) came out at 7.6 ± 0.45 µM; in series [2] (Homo sapiens, MG-63, 72 h), 9.4 ± 1.1 µM.

As usually defined, the inhibition is the percentage by which the read-out fell short of the control. Usually melting point stands for the temperature of the solid-liquid transition. In turn, `N/C(Cc1nc2ccccc2s1)=N\OC(=O)c1ccccc1Cl` came in with a melting point of 110 to 112 °C. Moreover, testing at 10 µg/mL in series [1] (Homo sapiens, PC-3, 72 h, Prostate cancer (PC-3), 10 μg/ml, 72 h) gave an inhibition of 95%. Further, the inhibition at 100 µg/mL in series [1] (Homo sapiens, PC-3, 72 h, Prostate cancer (PC-3), 100 μg/ml, 72 h) was 96%. The IC50 in series [1] (Homo sapiens, PC-3, 72 h) is under 4 µM. In series [1] (PC-3, 72 h), the midpoint of inhibition, the IC50, lay at 2.69 ± 0.03 µM. In series [1] (Prostate cancer (PC-3), 10 μg/ml, 72 h, listed as N'-[(2-chlorobenzoyl)oxy]-1,3-benzothiazole-2-carboximidamide), this molecule gave an Inhibition % of 95.61%. Moreover, 10 µg/mL produced 95% inhibition in series [2] (Homo sapiens, MG-63, 72 h, Osteosarcoma (MG-63), 10 μg/ml, 72 h). Besides, testing at 100 µg/mL in series [2] (Homo sapiens, MG-63, 72 h, Osteosarcoma (MG-63), 100 μg/ml, 72 h) gave an inhibition of 91.3%. The same molecule returned an IC50 in series [2] (Homo sapiens, MG-63, 72 h) of under 4 µM. In series [2] (MG-63, 72 h), half-maximal inhibition (IC50) was put at 3.45 µM. In series [2] (Osteosarcoma (MG-63), 10 μg/ml, 72 h, listed as N'-[(2-chlorobenzoyl)oxy]-1,3-benzothiazole-2-carboximidamide), this molecule gave an Inhibition % of 90.17%. For the same molecule, the antimicrobial activity result in series [3] is “excellent antimicrobial activities”.
